Results reported in ChEMBL document CHEMBL6087459 (J Med Chem, 2025).
pEC50, pIC50: −log10 of the molar value. Active and inactive are the calls of the source. The rule behind the calls is not given here.

How the values were obtained:
[1] = test system: Cryptosporidium parvum; assay: Antiparasitic activity against Cryptosporidium parvum Iowa oocyst infected in human HCT-8 cells assessed as reduction in asexual replication pre-infected with cells for 3 hrs followed by compound addition and measured after 48 hrs by staining based automated fluorescence microscopic analysis; type: functional, organism-based
[2] = test system: HCT-8; assay: Cytotoxicity against human HCT-8 cells assessed as reduction in cell numbers upto 50 uM incubated for 48 hrs by high-density microscopic celltiter aqueous assay; type: toxicity, cell-based; conditions: hct-8, 48 h
[3] = test system: HCT-8; assay: Cytotoxicity against human HCT-8 cells assessed as inhibition of cell proliferation at 25 to 50 uM incubated for 48 hrs by Celltiter aqueous assay; type: toxicity, cell-based; conditions: hct-8, 48 h, dose 25-50 µM
[4] = test system: HCT-8; assay: Cytotoxicity against human HCT-8 cells assessed as reduction in cell numbers at 25 uM incubated for 48 hrs by high-density microscopic celltiter aqueous assay relative to control; type: toxicity, cell-based; design: scale not given: the % may be the effect or the level left; conditions: hct-8, 48 h
[5] = test system: HCT-8; assay: Cytotoxicity against human HCT-8 cells assessed as reduction in cell numbers at 50 uM incubated for 48 hrs by high-density microscopic celltiter aqueous assay relative to control; type: toxicity, cell-based; design: scale not given: the % may be the effect or the level left; conditions: hct-8, 48 h
[6] = organism: Homo sapiens; assay: Inhibition of human PDE1B at 10 uM by Eurofins kinase assay relative to control
[7] = biological target: cGMP-dependent 3',5'-cyclic phosphodiesterase (Homo sapiens) (UniProt O00408); assay: Inhibition of human PDE2A1 at 10 uM by Eurofins kinase assay relative to control
[8] = biological target: cGMP-inhibited 3',5'-cyclic phosphodiesterase 3A (Homo sapiens) (UniProt Q14432); assay: Inhibition of human PDE3A at 10 uM by Eurofins kinase assay relative to control
[9] = biological target: cGMP-inhibited 3',5'-cyclic phosphodiesterase 3B (Homo sapiens) (UniProt Q13370); assay: Inhibition of human PDE3B at 10 uM by Eurofins kinase assay relative to control
[10] = organism: Homo sapiens; assay: Inhibition of human PDE4A1A at 10 uM by Eurofins kinase assay relative to control
[11] = biological target: 3',5'-cyclic-AMP phosphodiesterase 4B (Homo sapiens) (UniProt Q07343); assay: Inhibition of human PDE4B1 at 10 uM by Eurofins kinase assay relative to control
[12] = biological target: 3',5'-cyclic-AMP phosphodiesterase 4D (Homo sapiens, UniProt Q08499); assay: Inhibition of human PDE4D2 at 10 uM by Eurofins kinase assay relative to control
[13] = biological target: cGMP-specific 3',5'-cyclic phosphodiesterase (Homo sapiens) (UniProt O76074); assay: Inhibition of human PDE5 at 10 uM by Eurofins kinase assay relative to control
[14] = organism: Homo sapiens; assay: Inhibition of human PDE6 at 10 uM by Eurofins kinase assay relative to control
[15] = biological target: High affinity 3',5'-cyclic-AMP phosphodiesterase 7A (Homo sapiens) (UniProt Q13946); assay: Inhibition of human PDE7A1 at 10 uM by Eurofins kinase assay relative to control
[16] = biological target: High affinity cAMP-specific and IBMX-insensitive 3',5'-cyclic phosphodiesterase 8A (Homo sapiens) (UniProt O60658); assay: Inhibition of human PDE8A1 at 10 uM by Eurofins kinase assay relative to control
[17] = biological target: cAMP and cAMP-inhibited cGMP 3',5'-cyclic phosphodiesterase 10A (Homo sapiens) (UniProt Q9Y233); assay: Inhibition of human PDE10A2 at 10 uM by Eurofins kinase assay relative to control
[18] = test system: Cryptosporidium parvum; assay: Antiparasitic activity against Cryptosporidium parvum Iowa oocyst infected in NOD SCID gamma mouse model assessed as reduction in parasite fecal shedding at 50 mg/kg, po administered twice daily for 7 days starting from day 7 post infection and measured on day 21 by qPCR analysis; type: functional, organism-based; conditions: time 14.0 day
[19] = biological target: Cytochrome P450 2B6 (Homo sapiens, UniProt P20813); assay: Inhibition of CYP2B6 (unknown origin) incubated for 20 mins by fast gradient LC-MS analysis
[20] = biological target: Dual 3',5'-cyclic-AMP and -GMP phosphodiesterase 11A (Homo sapiens) (UniProt Q9HCR9); assay: Inhibition of human PDE11A at 10 uM by Eurofins kinase assay relative to control

Chain of cGMP-inhibited 3',5'-cyclic phosphodiesterase 3A (Homo sapiens) (Q14432 whole entry): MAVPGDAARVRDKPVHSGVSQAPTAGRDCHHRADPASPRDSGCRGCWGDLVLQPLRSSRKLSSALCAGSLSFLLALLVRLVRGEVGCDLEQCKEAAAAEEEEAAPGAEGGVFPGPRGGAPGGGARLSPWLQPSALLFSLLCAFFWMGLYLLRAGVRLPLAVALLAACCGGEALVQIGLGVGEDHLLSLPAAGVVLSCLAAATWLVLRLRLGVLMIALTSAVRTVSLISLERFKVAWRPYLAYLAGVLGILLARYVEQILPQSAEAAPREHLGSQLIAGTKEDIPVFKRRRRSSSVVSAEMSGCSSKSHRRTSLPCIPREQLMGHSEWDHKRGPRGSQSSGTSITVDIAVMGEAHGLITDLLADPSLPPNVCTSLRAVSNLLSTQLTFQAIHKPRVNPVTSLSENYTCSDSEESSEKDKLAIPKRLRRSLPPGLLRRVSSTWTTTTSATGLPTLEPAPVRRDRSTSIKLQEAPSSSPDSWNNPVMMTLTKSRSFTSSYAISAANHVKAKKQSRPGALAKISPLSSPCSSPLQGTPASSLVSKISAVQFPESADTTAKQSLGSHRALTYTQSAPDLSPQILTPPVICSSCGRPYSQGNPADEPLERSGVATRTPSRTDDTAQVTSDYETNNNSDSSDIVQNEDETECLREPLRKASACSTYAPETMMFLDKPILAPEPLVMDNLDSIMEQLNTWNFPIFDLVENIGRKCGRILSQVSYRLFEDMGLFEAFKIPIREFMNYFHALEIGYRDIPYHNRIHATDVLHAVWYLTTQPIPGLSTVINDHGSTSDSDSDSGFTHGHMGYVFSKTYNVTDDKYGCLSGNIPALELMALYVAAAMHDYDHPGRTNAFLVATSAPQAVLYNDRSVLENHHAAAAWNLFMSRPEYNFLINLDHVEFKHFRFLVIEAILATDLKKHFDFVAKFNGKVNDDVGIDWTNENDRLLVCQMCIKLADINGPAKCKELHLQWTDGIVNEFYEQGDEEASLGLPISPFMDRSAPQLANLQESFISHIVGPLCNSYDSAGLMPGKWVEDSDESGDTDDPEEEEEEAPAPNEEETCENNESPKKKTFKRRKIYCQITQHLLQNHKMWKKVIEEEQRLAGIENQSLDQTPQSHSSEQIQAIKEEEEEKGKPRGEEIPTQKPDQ
Chain of cGMP-dependent 3',5'-cyclic phosphodiesterase (Homo sapiens) (O00408 whole entry): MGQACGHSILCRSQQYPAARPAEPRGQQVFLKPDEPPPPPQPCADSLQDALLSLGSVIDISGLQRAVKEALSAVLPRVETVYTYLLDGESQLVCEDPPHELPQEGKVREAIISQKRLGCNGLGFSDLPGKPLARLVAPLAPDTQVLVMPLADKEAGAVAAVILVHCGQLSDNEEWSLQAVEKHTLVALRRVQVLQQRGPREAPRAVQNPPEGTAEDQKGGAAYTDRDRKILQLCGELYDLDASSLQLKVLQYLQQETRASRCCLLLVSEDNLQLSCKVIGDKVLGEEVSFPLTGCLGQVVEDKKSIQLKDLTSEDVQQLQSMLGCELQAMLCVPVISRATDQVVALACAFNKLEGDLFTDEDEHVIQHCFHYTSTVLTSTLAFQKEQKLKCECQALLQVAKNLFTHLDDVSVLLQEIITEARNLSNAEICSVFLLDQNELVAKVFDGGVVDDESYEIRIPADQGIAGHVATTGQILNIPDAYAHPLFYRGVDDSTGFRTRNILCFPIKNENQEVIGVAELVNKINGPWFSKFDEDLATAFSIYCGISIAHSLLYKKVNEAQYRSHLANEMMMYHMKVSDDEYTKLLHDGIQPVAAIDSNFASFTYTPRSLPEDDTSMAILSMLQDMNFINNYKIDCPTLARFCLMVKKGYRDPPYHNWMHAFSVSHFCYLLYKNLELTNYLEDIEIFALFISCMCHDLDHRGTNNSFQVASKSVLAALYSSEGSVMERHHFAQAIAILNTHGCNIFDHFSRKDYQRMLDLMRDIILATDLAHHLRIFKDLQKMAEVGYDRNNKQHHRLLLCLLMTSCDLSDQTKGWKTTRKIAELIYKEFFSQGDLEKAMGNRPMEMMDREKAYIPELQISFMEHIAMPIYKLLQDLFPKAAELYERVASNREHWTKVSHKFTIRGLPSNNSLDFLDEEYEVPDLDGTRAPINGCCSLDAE
Chain of 3',5'-cyclic-AMP phosphodiesterase 4D (Q08499 whole entry): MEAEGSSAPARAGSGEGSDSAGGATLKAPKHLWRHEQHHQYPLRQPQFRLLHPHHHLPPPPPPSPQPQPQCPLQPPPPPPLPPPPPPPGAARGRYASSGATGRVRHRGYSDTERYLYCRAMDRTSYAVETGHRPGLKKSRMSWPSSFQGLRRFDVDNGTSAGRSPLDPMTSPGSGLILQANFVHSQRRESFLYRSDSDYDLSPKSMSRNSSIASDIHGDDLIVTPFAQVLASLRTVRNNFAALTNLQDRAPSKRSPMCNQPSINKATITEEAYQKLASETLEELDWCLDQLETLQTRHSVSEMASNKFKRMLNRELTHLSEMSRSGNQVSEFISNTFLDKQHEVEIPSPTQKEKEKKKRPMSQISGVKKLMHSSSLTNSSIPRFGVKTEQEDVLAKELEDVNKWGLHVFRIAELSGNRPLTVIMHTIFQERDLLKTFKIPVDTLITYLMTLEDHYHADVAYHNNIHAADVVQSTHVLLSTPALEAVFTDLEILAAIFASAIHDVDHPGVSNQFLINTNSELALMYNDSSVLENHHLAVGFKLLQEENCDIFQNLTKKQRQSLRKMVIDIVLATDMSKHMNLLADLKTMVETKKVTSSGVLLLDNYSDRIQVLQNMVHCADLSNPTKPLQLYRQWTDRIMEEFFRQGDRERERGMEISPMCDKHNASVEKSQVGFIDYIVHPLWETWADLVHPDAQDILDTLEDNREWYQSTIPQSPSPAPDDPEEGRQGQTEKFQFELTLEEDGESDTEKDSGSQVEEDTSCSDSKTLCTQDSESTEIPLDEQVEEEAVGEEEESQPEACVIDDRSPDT
Chain of cAMP and cAMP-inhibited cGMP 3',5'-cyclic phosphodiesterase 10A (Homo sapiens) (Q9Y233 whole entry): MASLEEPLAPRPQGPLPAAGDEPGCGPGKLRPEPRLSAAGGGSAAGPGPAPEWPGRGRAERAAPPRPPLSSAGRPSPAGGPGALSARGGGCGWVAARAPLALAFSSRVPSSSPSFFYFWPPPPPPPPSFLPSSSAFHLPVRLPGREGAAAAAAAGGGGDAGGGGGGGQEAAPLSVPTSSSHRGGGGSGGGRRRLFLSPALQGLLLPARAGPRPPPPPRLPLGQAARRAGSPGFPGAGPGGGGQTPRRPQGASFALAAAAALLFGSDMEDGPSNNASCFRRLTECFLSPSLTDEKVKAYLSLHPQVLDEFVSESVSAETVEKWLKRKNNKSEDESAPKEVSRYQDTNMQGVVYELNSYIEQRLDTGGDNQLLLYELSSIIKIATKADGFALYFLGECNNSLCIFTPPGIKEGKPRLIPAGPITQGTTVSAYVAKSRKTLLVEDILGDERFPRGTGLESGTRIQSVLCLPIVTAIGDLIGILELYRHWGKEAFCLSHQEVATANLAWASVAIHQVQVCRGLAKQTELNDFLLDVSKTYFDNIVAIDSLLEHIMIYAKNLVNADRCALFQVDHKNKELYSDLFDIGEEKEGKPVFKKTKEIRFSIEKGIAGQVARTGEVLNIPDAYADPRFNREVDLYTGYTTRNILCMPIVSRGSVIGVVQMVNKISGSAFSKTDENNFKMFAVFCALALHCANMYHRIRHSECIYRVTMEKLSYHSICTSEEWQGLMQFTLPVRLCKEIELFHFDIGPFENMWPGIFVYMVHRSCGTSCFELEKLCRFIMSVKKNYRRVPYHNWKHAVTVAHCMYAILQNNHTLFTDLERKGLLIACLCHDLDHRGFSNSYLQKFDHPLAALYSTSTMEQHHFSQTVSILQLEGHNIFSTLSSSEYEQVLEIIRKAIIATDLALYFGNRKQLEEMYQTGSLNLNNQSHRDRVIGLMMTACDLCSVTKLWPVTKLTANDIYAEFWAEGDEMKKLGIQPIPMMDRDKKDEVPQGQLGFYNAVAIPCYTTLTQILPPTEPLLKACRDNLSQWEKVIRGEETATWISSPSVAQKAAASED
Chain of cGMP-inhibited 3',5'-cyclic phosphodiesterase 3B (Homo sapiens) (Q13370 whole entry, looked up): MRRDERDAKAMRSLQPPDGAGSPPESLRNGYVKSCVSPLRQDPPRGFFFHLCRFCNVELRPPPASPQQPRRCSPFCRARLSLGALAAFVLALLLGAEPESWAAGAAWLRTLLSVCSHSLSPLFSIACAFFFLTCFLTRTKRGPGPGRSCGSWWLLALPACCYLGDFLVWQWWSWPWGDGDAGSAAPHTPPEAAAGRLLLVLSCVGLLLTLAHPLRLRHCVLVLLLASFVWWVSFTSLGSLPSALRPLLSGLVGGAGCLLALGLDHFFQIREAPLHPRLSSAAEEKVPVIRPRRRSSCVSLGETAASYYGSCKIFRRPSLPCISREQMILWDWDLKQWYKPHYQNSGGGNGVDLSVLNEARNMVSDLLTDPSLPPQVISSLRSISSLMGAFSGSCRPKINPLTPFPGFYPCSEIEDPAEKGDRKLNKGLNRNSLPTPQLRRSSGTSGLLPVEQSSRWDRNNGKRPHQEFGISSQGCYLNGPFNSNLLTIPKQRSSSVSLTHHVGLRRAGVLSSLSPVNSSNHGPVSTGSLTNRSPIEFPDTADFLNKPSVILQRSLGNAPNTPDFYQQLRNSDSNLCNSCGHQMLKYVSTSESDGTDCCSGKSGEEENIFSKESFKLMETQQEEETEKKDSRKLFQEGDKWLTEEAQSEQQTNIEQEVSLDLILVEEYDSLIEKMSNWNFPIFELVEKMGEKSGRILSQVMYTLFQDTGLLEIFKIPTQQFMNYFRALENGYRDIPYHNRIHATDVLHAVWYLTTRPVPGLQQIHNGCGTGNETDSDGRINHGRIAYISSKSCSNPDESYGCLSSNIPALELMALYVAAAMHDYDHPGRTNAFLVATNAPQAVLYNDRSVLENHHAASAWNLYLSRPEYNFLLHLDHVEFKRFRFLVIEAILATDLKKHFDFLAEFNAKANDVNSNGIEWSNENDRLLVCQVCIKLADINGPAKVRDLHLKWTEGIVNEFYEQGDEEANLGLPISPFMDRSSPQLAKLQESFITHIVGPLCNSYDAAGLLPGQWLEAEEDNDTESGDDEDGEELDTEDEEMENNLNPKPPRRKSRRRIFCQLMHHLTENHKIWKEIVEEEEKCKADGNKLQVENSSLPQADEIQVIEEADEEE

For `CCc1nn(C)c2nc(-c3ccc(S(C)(=O)=O)cc3)nc(NCc3ccc(F)cc3)c12`, the pEC50 [1] was 5.26 and the Activity [2] was “Non-toxic”.
In the case of `CCc1nn(C)c2nc(-c3ccc4c(O)nn(C)c4c3)nc(NCc3ccc(F)cc3)c12`, the pEC50 [1] was 5.52 and the Activity [2] was “Non-toxic”.
`CCc1nn(C)c2nc(-c3ccc(P(=O)(O)O)cc3)nc(NCc3ccc(F)cc3)c12` was tested, and the pEC50 [1] was under 4.30 and the Activity [2] was “Non-toxic”.
For `CCc1nn(C)c2nc(-c3ccc(F)c(C(=O)O)c3)nc(NCc3ccc(F)cc3)c12`, the pEC50 [1] was 5.28 and the Activity [2] was “Non-toxic”.
With `CCc1nn(C)c2nc(-c3c(C)noc3C)nc(NCc3ccc(F)cc3)c12` the pEC50 [1] was 5.35 and the Activity [2] was “Non-toxic”.
For `CC(=O)Oc1ccccc1C(=O)Nc1ncc([N+](=O)[O-])s1` [NITAZOXANIDE], the Activity [2] was “Non-toxic”.
`CCc1nn(C)c2nc(-c3ccc4c(c3)CNC4=O)nc(NCc3ccc(F)cc3)c12` was tested, and the pEC50 [1] was under 4.30 and the Activity [2] was “Non-toxic”.
In the case of `CCc1nn(C)c2nc(-c3ccc4c(c3)OCO4)nc(NCc3ccc(F)cc3)c12`, the pEC50 [1] was under 4.30 and the Activity [2] was “Non-toxic”.
With `CCc1nn(C)c2nc(-c3ccc(Nc4ccc(C(=O)O)cn4)cc3)nc(NCc3ccc(F)cc3)c12` the pEC50 [1] was 5.54 and the Activity [2] was “Non-toxic”.
With `CCc1nn(C)c2nc(-c3ccncc3)nc(NCc3ccc(F)cc3)c12` the pEC50 [1] was 5.07 and the Activity [2] was “Non-toxic”.
In the case of `CCc1nn(C)c2nc(-c3ccccc3)nc(NCc3ccc(F)cc3)c12`, the pEC50 [1] was 4.80 and the Activity [2] was “Non-toxic”.
With `CCc1nn(C)c2nc(-c3ccc4c(O)n[nH]c4c3)nc(NCc3ccc(F)cc3)c12` the pEC50 [1] was 5.21, the Activity [3] was “Toxic” and the Activity [4] was 78%. It also gave an Activity [5] of 89%.
With `CCc1nn(C)c2nc(-c3cccc(S(N)(=O)=O)c3)nc(NCc3ccc(F)cc3)c12` the pEC50 [1] was 5.60 and the Activity [2] was “Non-toxic”.
`CCc1nn(C)c2nc(-c3ccc4c(c3)COC4=O)nc(NCc3ccc(F)cc3)c12` was tested, and the pEC50 [1] was under 4.30 and the Activity [2] was “Non-toxic”.
In the case of `CCc1nn(C)c2nc(-c3ccc(OC)c(OC)c3)nc(NCc3ccc(F)cc3)c12`, the pEC50 [1] was 5.14 and the Activity [2] was “Non-toxic”.
In the case of `CCc1nn(C)c2nc(-c3cccc(C(=O)O)c3)nc(NCc3ccc(F)cc3)c12`, the pEC50 [1] was 5.92 and the Activity [2] was “Non-toxic”.
For `CCc1nn(C)c2nc(C(=O)O)nc(NCc3ccc(F)cc3)c12`, the pEC50 [1] was under 4.30 and the Activity [2] was “Non-toxic”.
`CCOC(=O)c1cccc(-c2nc(NCc3ccc(F)cc3)c3c(CC)nn(C)c3n2)c1` was tested, and the pEC50 [1] was 5.26 and the Activity [2] was “Non-toxic”.
For `CCc1nn(C)c2nc(-c3ccc(O)cc3)nc(NCc3ccc(F)cc3)c12`, the pEC50 [1] was 5.30 and the Activity [2] was “Non-toxic”.
For `CCc1nn(C)c2nc(-c3ccc4c(c3)COB4O)nc(NCc3ccc(F)cc3)c12`, the Activity [2] was “Non-toxic”, the inhibition [6] was -7.2% and the inhibition [7] was 32%. For the same molecule, the inhibition [8] was 17%, the inhibition [9] was 8% and the inhibition [10] was 54%. The inhibition [11] was 73%, the inhibition [12] was 27% and the inhibition [13] was 80%. For the same molecule, the inhibition [14] was 63%, the inhibition [15] was 23% and the inhibition [16] was 20%. For the same molecule, the inhibition [17] was -5.5% and the Activity [18] was “Active”.
In the case of `CCc1nn(C)c2nc(-c3ccc(Cl)c(Cl)c3)nc(NCc3ccc(F)cc3)c12`, the pEC50 [1] was 4.68 and the Activity [2] was “Non-toxic”.
With `CCc1nn(C)c2nc(-c3ccc(-c4nnn[nH]4)cc3)nc(NCc3ccc(F)cc3)c12` the pEC50 [1] was 5.24 and the Activity [2] was “Non-toxic”.
For `CCc1nn(C)c2nc(-c3ccc(C(=O)O)c(F)c3)nc(NCc3ccc(F)cc3)c12`, the pEC50 [1] was 5.47 and the Activity [2] was “Non-toxic”.
For `CCc1nn(C)c2nc(-c3cncnc3)nc(NCc3ccc(F)cc3)c12`, the pEC50 [1] was under 4.30 and the Activity [2] was “Non-toxic”.
For `CCc1nn(C)c2nc(C3=CCC(C(=O)O)CC3)nc(NCc3ccc(F)cc3)c12` (stereo not drawn), the pEC50 [1] was 5.74 and the Activity [2] was “Non-toxic”.
`CCc1nn(C)c2nc(-c3ccccc3OC)nc(NCc3ccc(F)cc3)c12` was tested, and the pEC50 [1] was 5.11 and the Activity [2] was “Non-toxic”.
With `CCc1nn(C)c2nc(-c3ccc(C(N)=O)cc3)nc(NCc3ccc(F)cc3)c12` the pEC50 [1] was 4.57 and the Activity [2] was “Non-toxic”.
With `CCc1nn(C)c2nc(-c3ccc(C(=O)O)nc3)nc(NCc3ccc(F)cc3)c12` the pEC50 [1] was 5.33 and the Activity [2] was “Non-toxic”.
In the case of `CCc1nn(C)c2nc(-c3ccc(OC)cc3)nc(NCc3ccc(F)cc3)c12`, the pEC50 [1] was 4.82 and the Activity [2] was “Non-toxic”.
`CCc1nn(C)c2ncnc(NCc3ccc(F)cc3)c12` was tested, and the pEC50 [1] was under 4.30 and the Activity [2] was “Non-toxic”.
`CCOC(=O)c1ccc(-c2nc(NCc3ccc(F)cc3)c3c(CC)nn(C)c3n2)cc1` was tested, and the pEC50 [1] was under 4.60 and the Activity [2] was “Non-toxic”.
With `CCc1nn(C)c2nc(-c3ccc(CO)cc3)nc(NCc3ccc(F)cc3)c12` the pEC50 [1] was 4.80 and the Activity [2] was “Non-toxic”.
With `CCc1nn(C)c2nc(-c3ccc(C4CCC(C(=O)O)CC4)cc3)nc(NCc3ccc(F)cc3)c12` (stereo not drawn) the pEC50 [1] was 5.36 and the Activity [2] was “Non-toxic”.
For `CCc1nn(C)c2nc(CCC(=O)O)nc(NCc3ccc(F)cc3)c12`, the pEC50 [1] was 5.03 and the Activity [2] was “Non-toxic”.
In the case of `CCc1nn(C)c2nc(-c3ccc(C(=O)N4CCNCC4)cc3)nc(NCc3ccc(F)cc3)c12`, the pEC50 [1] was 5.24 and the Activity [2] was “Non-toxic”.
`CCc1nn(C)c2nc(-c3ccc(N4CCC(C(=O)O)CC4)cc3)nc(NCc3ccc(F)cc3)c12` was tested, and the pEC50 [1] was 4.96 and the Activity [2] was “Non-toxic”.
With `CCc1nn(C)c2nc(-c3ccc(C#N)cc3)nc(NCc3ccc(F)cc3)c12` the pEC50 [1] was under 4.60 and the Activity [2] was “Non-toxic”.
`COC(=O)[C@H](c1ccccc1Cl)N1CCc2sccc2C1` [CLOPIDOGREL] was tested, and the pIC50 [19] was 6.70.
In the case of `CCc1nn(C)c2nc(-c3ccc(B(O)O)cc3)nc(NCc3ccc(F)cc3)c12`, the pEC50 [1] was 6.11, the Activity [2] was “Non-toxic” and the inhibition [6] was 31%. The inhibition [7] was 95%, the inhibition [8] was 62% and the inhibition [9] was 45%. For the same molecule, the inhibition [10] was 93%, the inhibition [11] was 96% and the inhibition [12] was 91%. For the same molecule, the inhibition [13] was 73%, the inhibition [14] was 98% and the inhibition [15] was 62%. The inhibition [16] was 29%, the inhibition [17] was 24% and the inhibition [20] was 82%. For the same molecule, the Activity [18] was “Active”.
`CCc1nn(C)c2nc(-c3cccc(OC)c3)nc(NCc3ccc(F)cc3)c12` was tested, and the pEC50 [1] was 4.82 and the Activity [2] was “Non-toxic”.
With `CCc1nn(C)c2nc(-c3ccc(CC(=O)O)cc3)nc(NCc3ccc(F)cc3)c12` the pEC50 [1] was 5.02 and the Activity [2] was “Non-toxic”.
